The text below walks through data of patent US8492405B2, “Glucokinase-activating fused heterocyclic compounds and methods of treating diabetes and obesity” (Takeda Pharmaceutical Company Limited, priority 2006, dated 2013).

The target in data set [1] is T1, GST-hLGK1 (human liver type GK) (Homo sapiens, UniProt P35557).
T1 construct: made in house; host or cells: Escherichia coli BL21
T1 sequence (P35557 1-464 isoform P35557-3): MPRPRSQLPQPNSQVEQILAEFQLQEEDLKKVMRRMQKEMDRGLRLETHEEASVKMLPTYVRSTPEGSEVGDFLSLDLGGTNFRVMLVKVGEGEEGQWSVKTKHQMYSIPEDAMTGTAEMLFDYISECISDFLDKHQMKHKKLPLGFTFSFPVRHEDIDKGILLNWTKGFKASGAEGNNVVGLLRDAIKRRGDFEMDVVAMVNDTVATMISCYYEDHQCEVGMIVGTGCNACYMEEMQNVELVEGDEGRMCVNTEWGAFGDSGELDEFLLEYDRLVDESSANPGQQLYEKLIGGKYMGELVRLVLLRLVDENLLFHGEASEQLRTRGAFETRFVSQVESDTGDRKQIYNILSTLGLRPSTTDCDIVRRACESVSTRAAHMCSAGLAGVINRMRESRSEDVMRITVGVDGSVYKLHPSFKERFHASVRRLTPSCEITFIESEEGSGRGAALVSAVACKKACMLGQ
The experiment in a line: Determination of GK activity value (Mant-ATP/Mant-ADP capillary electrophoresis). Conditions: GK activation; GST-hLGK1, D-glucose, 37° C. for 60 min. It counts as biochemical. The protocol: A solution (5 μL) of test compound in 50% dimethyl sulfoxide was added to each well of 384 well black plate (Nalge Nunc International K.K.). Then, a solution (35 μL) obtained by diluting GST-hLGK1 obtained in Reference Example 2A with measurement buffer (containing 50 mM HEPES (pH 7.4), 200 mM KCl, 5 mM MgCl2, 2.5 mM DTT and 50 μM 2′-(or -3′)—O—(N-methylanthraniloyl) adenosine 5′-triphosphate (Mant-ATP) (Jena Bioscience GmbH)) to 6 μg/mL was added to each well.
Each well was stood at 37° C. for 10 min, and 25 mM D-glucose solution (10 μL) was added to start the reaction.
Each well after the reaction was stood at 37° C. for 60 min, and the reaction was quenched by adding 25 μL of a quenching solution (containing 200 mM HEPES (pH 7.4), 20 mM MgCl2, 200 mM EDTA, 0.03% Triton-X 100, 0.3% Coating 3 reagent (Caliper Life Sciences, Inc.)).
2′-(or -3′)-O—(N-methylanthraniloyl)adenosine 5′-triphosphate (Mant-ATP, substrate) and Mant-ADP (reaction resultant product) were separated from each well after the reaction by a microchip type capillary electrophoresis apparatus 250 HTS (Caliper Life Sciences, Inc.). The reaction rate [(reaction resultant product peak height)/(reaction resultant product peak height+substrate peak height)×100(%)] was calculated from the ratio of the substrate peak height and reaction resultant product peak height obtained by fluorescence detection (excitation wavelength 355 nm, measurement wavelength 460 nm) and used as the index of GK activity.
As a control group, the reaction rate was calculated in the same manner as above except that “solution in 50% dimethyl sulfoxide (free of a test compound)” was used instead of “solution of test compound in 50% dimethyl sulfoxide”.
Using the percentage obtained by subtracting the reaction rate of the control group from the reaction rate of the well added with the test compound (test compound addition group) as a GK activation value of the test compound, a concentration dependency curve of the test compound was drawn, and the concentration of the test compound at the middle point between the maximum activity value of the test compound addition group and the activity value of the control group was taken as an EC50 value.

On to `CCn1cc(N(C)S(=O)(=O)c2cccs2)c2[nH]c(C3=NCCS3)cc21` [Example 17, N-[5-(4,5-dihydro-1,3-thiazol-2-yl)-1-ethyl-1,4-dihydropyrrolo[3,2-b]pyrrol-3-yl]-N-methylthiophene-2-sulfonamide], for which the melting point (in general, the temperature of the solid-liquid transition) is 163 °C. The EC50 (in general, the concentration giving half of the maximal effect) in data set [1] is 350 nM.

The molecule `Cc1sc2cc(C3=NCC4(CCNCC4)S3)[nH]c2c1N(C)S(=O)(=O)c1cccs1` [Example 7, N-methyl-N-[2-methyl-5-(1-thia-3,8-diazaspiro[4.5]deca-2-en-2-yl)-4H-thieno[3,2-b]pyrrol-3-yl]thiophene-2-sulfonamide] returned a melting point of 196 °C.

`CCOC(=O)c1cc2c([nH]1)c(N(C)S(=O)(=O)c1cccs1)cn2Cc1ccccc1` [Example 18, ethyl 4-benzyl-6-[methyl(2-thienylsulfonyl)amino]-1,4-dihydropyrrolo[3,2-b]pyrrole-2-carboxylate] had a melting point of 120 °C. This molecule also came in with a concentration for a half-maximal effect (EC50) in data set [1] of 430 nM.

For the molecule `CC(=O)N1CCC2(CC1)CN=C(c1cc3sc(C)c(N(C)S(=O)(=O)c4cccs4)c3[nH]1)S2` [Example 8, N-[5-(8-acetyl-1-thia-3,8-diazaspiro[4.5]deca-2-en-2-yl)-2-methyl-4H-thieno[3,2-b]pyrrol-3-yl]-N-methylthiophene-2-sulfonamide], the melting point was 231 °C. Moreover, in data set [1], a half-maximal response (EC50) required 160 nM.

`COC(OC)C1CN=C(c2cc3sc(C)c(N(C)S(=O)(=O)c4cccs4)c3[nH]2)S1` (centres unmarked) [Example 12, N-{5-[5-(dimethoxymethyl)-4,5-dihydro-1,3-thiazol-2-yl]-2-methyl-4H-thieno[3,2-b]pyrrol-3-yl}-N-methylthiophene-2-sulfonamide] came in with a melting point of 185 °C.

For the molecule `Cc1sc2cc(C3=NCCS3)[nH]c2c1N(C)S(=O)(=O)c1cccs1` [Example 5, N-[5-(4,5-dihydro-1,3-thiazol-2-yl)-2-methyl-4H-thieno[3,2-b]pyrrol-3-yl]-N-methylthiophene-2-sulfonamide], the melting point is 140 °C. In addition, in data set [1], the 50% effective concentration (EC50) is 74 nM.

Regarding `CCOC(=O)c1cc2sc(C)c(N(C)S(=O)(=O)c3cccs3)c2[nH]1` [Example 3, ethyl 2-methyl-3-[methyl(2-thienylsulfonyl)amino]-4H-thieno[3,2-b]pyrrole-5-carboxylate], the melting point stood at 161 °C.

`CON(C)C(=O)c1cc2sc(C)c(N(C)S(=O)(=O)c3cccs3)c2[nH]1` [Example 13, N-methoxy-N,2-dimethyl-3-[methyl(2-thienylsulfonyl)amino]-4H-thieno[3,2-b]pyrrole-5-carboxamide] returned a melting point of 187 °C.

For the molecule `CCOC(=O)c1cc2nc(C)n(Cc3ccccc3)c2[nH]1` [Example 1, ethyl 3-benzyl-2-methyl-3,4-dihydropyrrolo[2,3-d]imidazole-5-carboxylate], the melting point is 193 °C. Further, it took 3600 nM to reach a half-maximal effect in data set [1] (EC50).

As for `CCOC(=O)c1cc2c([nH]1)c(N(C)S(=O)(=O)c1cccs1)cn2CC` [Example 15, ethyl 4-ethyl-6-[methyl(2-thienylsulfonyl)amino]-1,4-dihydropyrrolo[3,2-b]pyrrole-2-carboxylate], the melting point is 122 °C.

Regarding `CCOC(=O)c1cc2sc(C)c(N(C)C(=O)OCc3ccccc3)c2[nH]1` [Example 2, ethyl 3-{[(benzyloxy)carbonyl](methyl)amino}-2-methyl-4H-thieno[3,2-b]pyrrole-5-carboxylate], the melting point came out at 122 °C.

For `CC(=O)c1cc2sc(C)c(N(C)S(=O)(=O)c3cccs3)c2[nH]1` [Example 14, N-(5-acetyl-2-methyl-4H-thieno[3,2-b]pyrrol-3-yl)-N-methylthiophene-2-sulfonamide], the melting point turned out to be 220 °C.

In the case of `Cc1sc2cc(C(=O)NCC3(SCc4ccccc4)CCNCC3)[nH]c2c1N(C)S(=O)(=O)c1cccs1` [Example 6, N-{[4-(benzylthio)piperidin-4-yl]methyl}-2-methyl-3-[methyl(2-thienylsulfonyl)amino]-4H-thieno[3,2-b]pyrrole-5-carboxamide], the melting point was 222 °C.

As to `CCOC(=O)C(=O)NNC(=O)c1cc2sc(C)c(N(C)S(=O)(=O)c3cccs3)c2[nH]1` [Example 9, ethyl [2-({2-methyl-3-[methyl(2-thienylsulfonyl)amino]-4H-thieno[3,2-b]pyrrol-5-yl}carbonyl)hydrazino](oxo)acetate], the melting point was 135 °C.

With `CCOC(=O)c1nnc(-c2cc3sc(C)c(N(C)S(=O)(=O)c4cccs4)c3[nH]2)s1` [Example 10, ethyl 5-{2-methyl-3-[methyl(2-thienylsulfonyl)amino]-4H-thieno[3,2-b]pyrrol-5-yl}-1,3,4-thiadiazole-2-carboxylate], the melting point came to 209 °C.
